{"source": "paper PMC7490547", "about": "(Frontiers in Pharmacology, 2020)", "key": {"human 5-HT3A receptor": {"molecular_target": "T1, human 5-HT3A receptor (Homo sapiens, UniProt P46098)", "T1 construct": "expressed in transfected cells; host or cells: HEK293-AEQ17 cells (HEK 293 stably expressing apoaequorin), transient transfection", "T1 sequence (P46098 24-478)": "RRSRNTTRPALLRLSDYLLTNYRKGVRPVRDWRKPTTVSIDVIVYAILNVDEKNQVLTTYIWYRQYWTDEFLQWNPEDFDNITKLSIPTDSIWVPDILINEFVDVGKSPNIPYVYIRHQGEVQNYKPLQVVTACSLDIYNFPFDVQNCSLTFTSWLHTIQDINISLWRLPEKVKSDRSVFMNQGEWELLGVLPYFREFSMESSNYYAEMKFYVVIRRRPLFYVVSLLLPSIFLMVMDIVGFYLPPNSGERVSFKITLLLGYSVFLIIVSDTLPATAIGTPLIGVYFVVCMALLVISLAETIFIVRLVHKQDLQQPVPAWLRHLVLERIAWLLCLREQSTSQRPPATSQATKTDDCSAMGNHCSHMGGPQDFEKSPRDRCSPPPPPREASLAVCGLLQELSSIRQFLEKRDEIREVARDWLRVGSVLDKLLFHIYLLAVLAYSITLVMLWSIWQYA", "assay_type": "cell-based", "protocol": "Cells were seeded in 25-cm^2 cell culture flasks in Dulbecco’s modified Eagle’s medium (DMEM)/Ham’s F12 (1:1) + 10% fetal bovine serum to obtain a cell density of 50% to 70%, and the following day, transiently transfected with cDNA encoding human 5-HT3A receptor (3 µg) using Lipofectamine 2000 reagent (Thermo Fisher Scientific-Invitrogen, Waltham, MA) according to the manufacturer’s instructions. Two days after transfection, cells were harvested by centrifugation and resuspended in 0.5 ml (25-cm^2 flask) DMEM/Ham’s F12 (1:1) + 0.1% bovine serum albumin. The cell suspension was incubated with 10 μM Coelenterazine h (Thermo Fisher Scientific-Invitrogen, Waltham, MA, USA) for three hours at room temperature in the dark. […] Luminescence was measured using a Luminoskan (Thermo Fisher Scientific, Waltham, MA, USA) equipped with an injector and recorded at a sampling rate of 2 Hz for up to 60 s. At the end of the experiments, cells were lysed with Triton X-100 0.1% (v/v) and CaCl2 50 mM, and aequorin luminescence was recorded to obtain the maximum Ca^2+ response. […] Data were exported to software Origin™ 8.5 (Originlab Corp. Northampton, MA, USA)."}, "human 5-HT3AB receptors": {"molecular_target": "T2, human 5-HT3AB receptors (Homo sapiens, UniProt O95264+P46098)", "T2 construct": "host or cells: Xenopus laevis oocytes, subunits injected at ratios 1:1 or 1:2", "T2 sequence (P46098 24-478)": "T1 sequence (P46098 24-478)", "T2 sequence (O95264 22-441)": "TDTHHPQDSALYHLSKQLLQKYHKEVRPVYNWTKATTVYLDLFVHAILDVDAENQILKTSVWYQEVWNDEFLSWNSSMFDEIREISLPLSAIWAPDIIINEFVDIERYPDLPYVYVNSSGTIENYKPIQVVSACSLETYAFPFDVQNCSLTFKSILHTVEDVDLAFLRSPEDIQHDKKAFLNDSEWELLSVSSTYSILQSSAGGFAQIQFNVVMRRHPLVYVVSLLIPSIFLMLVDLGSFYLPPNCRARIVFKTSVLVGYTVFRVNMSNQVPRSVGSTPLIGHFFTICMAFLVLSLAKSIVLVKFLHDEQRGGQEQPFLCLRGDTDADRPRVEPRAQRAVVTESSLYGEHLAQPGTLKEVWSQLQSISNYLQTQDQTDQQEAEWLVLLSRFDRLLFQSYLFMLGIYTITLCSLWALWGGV", "assay": "Two-electrode voltage clamp in Xenopus oocytes co-expressing 5-HT3A and 5-HT3B subunits", "assay_type": "cell-based", "details": "100 µM; 3 µM 5-HT for 5-HT3A and 30 µM 5-HT for 5-HT3AB; n = 5–7, P>0.05", "source_text": "Mature female Xenopus laevis frogs were obtained from Xenopus leavis I, Ann Arbor, MI, USA. Experiments and methods used in this study were in accordance with the Guide for the Care and Use of Laboratory Animals of the National Institutes of Health (Bethesda, MD, USA) and our protocol (A9/08) was approved by the Institutional Animal Care and Use Committee at the College of Medicine and Health Sciences, United Arab Emirates University. Clusters of oocytes were removed surgically under benzocaine (0.03% w/v; Sigma, St.Louis, MO) anesthesia. Individually dissected oocytes were stored for 2 to 8 days in modified Barth’s solution (MBS) containing (in mM): NaCl 88; KCl 1; NaHCO3 2.4; CaCl2; 2; MgSO4 0.8; HEPES 10 (pH 7.5), supplemented with sodium pyruvate 2 mM, penicillin 10,000 IU/L, streptomycin 10 mg/L, gentamicin 50 mg/L, and theophylline 0.5 mM. Human 5-HT3A receptor cRNA (3 ng in 50 nl) was injected into each oocyte as described before ([Ashoor et al., 2013]). In co-expression of subunit combinations, cDNAs for 5-HT3A and 5-HT3B subunits, were mixed in ratios of 1:1 (or 1:2), respectively. […] Current responses were digitized by A/D converter and analyzed using pClamp 10.4 (Molecular Devices-Axon Instruments, San Jose, CA USA) or Origin™ (Originlab Corp. Northampton, MA, USA), run on an IBM/PC. […]"}, "[1]": {"test_system": "voltage-gated Na+ channels", "details": "cited from earlier work"}, "K+ channels": {"test_system": "K+ channels", "details": "cited from earlier work"}, "Ca2+ channels": {"test_system": "Ca2+ channels", "details": "cited from earlier work"}, "[2]": {"set-up": "method as in Rollyson et al., 2014; Swain and Kumar Mishra, 2015", "details": "ref Rollyson et al., 2014; Swain and Kumar Mishra, 2015; cited from earlier work"}, "[3]": {"set-up": "method as in Lee et al., 1997; Wohlrab et al., 2015", "details": "assumed value; ref Lee et al., 1997; Wohlrab et al., 2015; cited from earlier work"}, "human 5-HT3 receptor": {"molecular_target": "T3, human 5-HT3 receptor (Homo sapiens, UniProt P46098)", "T3 sequence (P46098 24-478)": "T1 sequence (P46098 24-478)", "assay": "Two-electrode voltage clamp of 5-HT-induced currents in Xenopus oocytes expressing human 5-HT3A receptor", "assay_type": "cell-based", "set-up": "host or cells: Xenopus laevis oocytes injected with cRNA", "source_text": "Mature female Xenopus laevis frogs were obtained from Xenopus leavis I, Ann Arbor, MI, USA. Experiments and methods used in this study were in accordance with the Guide for the Care and Use of Laboratory Animals of the National Institutes of Health (Bethesda, MD, USA) and our protocol (A9/08) was approved by the Institutional Animal Care and Use Committee at the College of Medicine and Health Sciences, United Arab Emirates University. Clusters of oocytes were removed surgically under benzocaine (0.03% w/v; Sigma, St.Louis, MO) anesthesia. Individually dissected oocytes were stored for 2 to 8 days in modified Barth’s solution (MBS) containing (in mM): NaCl 88; KCl 1; NaHCO3 2.4; CaCl2; 2; MgSO4 0.8; HEPES 10 (pH 7.5), supplemented with sodium pyruvate 2 mM, penicillin 10,000 IU/L, streptomycin 10 mg/L, gentamicin 50 mg/L, and theophylline 0.5 mM. […] In co-expression of subunit combinations, cDNAs for 5-HT3A and 5-HT3B subunits, were mixed in ratios of 1:1 (or 1:2), respectively. Following day, oocytes were placed in a 0.2 ml recording chamber and superfused at a constant rate of 3 to 5 ml/min. […] The oocytes were impaled with two standard glass microelectrodes filled with a 3 M KCl (1–3 MΩ) and voltage clamped at a holding potential of −70 mV using GeneClamp-500B amplifier (Axon Instruments Inc., Burlingame, CA). […] Compounds were applied by addition to the superfusate. […] Injections were performed 10 min prior to recordings using oil-driven ultra microsyringe pumps (Micro4; WPI, Inc. Sarasota, FL, USA).\nThe cDNA clones of the human 5-HT3A and 5-HT3B subunits were provided by OriGen Inc. (Rockville, MD). Complementary RNAs (cRNAs) were synthesized in vitro using a mMessage mMachine RNA transcription kit (Ambion Inc., Austin, TX). The quality and size of synthesized cRNAs were confirmed by denatured RNA agarose gels.\nFor the nonlinear curve fitting and regression fits of the dose-response curves and radio-ligand binding data, the computer software Origin™ 8.5 (Originlab Corp. Northampton, MA, USA) was used. In functional assays, average values were calculated as mean ± standard error means (S.E.M.). Statistical significance was analyzed using ANOVA or Student’s t test and post hoc Bonferroni test was used following ANOVA. Concentration-response curves were obtained by fitting the data to the logistic equation, […]"}}, "note": "Read-outs that look alike come from different tables or passages of the source."}
{"smiles": "NCCc1c[nH]c2ccc(O)cc12", "note": "[5-HT, 5-hydroxytryptamine]", "values": [{"measurement": "luminescence activation in cells not transfected with 5-HT3", "setting": "human 5-HT3A receptor; 30 μM, coelenterazine h-loaded HEK-293-AEQ17 cells, n = 4", "result": "did not cause luminescence activation"}, {"measurement": "slope of the aequorin concentration-response curve", "setting": "human 5-HT3A receptor; HEK-293-AEQ17 cells transfected with human 5-HT3 receptor", "result": 2.7}]}
{"smiles": "COc1cc(CNC(=O)CCCC/C=C/C(C)C)ccc1O", "note": "[capsaicin, (E)-N-[(4-Hydroxy-3-methoxyphenyl)methyl]-8-methyl-6-nonenamide]", "values": [{"measurement": "extent of inhibition among 5-HT3A, 5-HT3AB (1:1) and 5-HT3AB (1:2) receptors", "setting": "human 5-HT3AB receptors", "result": "not statistically different"}, {"measurement": "IC50", "setting": "[1]; ref Bielefeldt, 2000", "result": 40, "unit": "µM"}, {"measurement": "IC50", "setting": "[1]; ref Duan et al., 2007", "result": 39, "unit": "µM"}, {"measurement": "IC50", "setting": "[1]; ref Tomohiro et al., 2013", "result": 100, "unit": "µM"}, {"measurement": "IC50", "setting": "[1]; ref Wang et al., 2007", "result": 76, "unit": "µM"}, {"measurement": "IC50", "setting": "K+ channels; ref Aréchiga-Figueroa et al., 2017", "result": 10, "unit": "µM"}, {"measurement": "IC50", "setting": "K+ channels; ref Grissmer et al., 1994", "result": 158, "unit": "µM"}, {"measurement": "IC50", "setting": "K+ channels; ref Kuenzi and Dale, 1996", "result": 21, "unit": "µM"}, {"measurement": "IC50", "setting": "K+ channels; ref Wu et al., 2011", "result": 103, "unit": "µM"}, {"measurement": "IC50", "setting": "Ca2+ channels; ref Castillo et al., 2007", "result": 38, "unit": "µM"}, {"measurement": "IC50", "setting": "Ca2+ channels; ref Kuenzi and Dale, 1996", "result": 44, "unit": "µM"}, {"measurement": "LogP (octanol–water partition coefficient)", "setting": "[2]", "result": 3.8}, {"measurement": "fraction of topically applied capsaicin absorbed into the skin", "setting": "[3]", "result": 2, "unit": "%"}]}
{"smiles": "COc1cc(CNC(=O)CCCCCCC(C)C)ccc1O", "note": "[dihydrocapsaicin, Dihydrocapsaicin]", "values": [{"measurement": "inhibition at 100 µM", "setting": "human 5-HT3 receptor; read-out: 5-HT3 receptors inhibited to (% )", "result": 62, "unit": "%"}]}
{"smiles": "COc1cc(C=O)ccc1O", "note": "[vanillin]", "values": [{"measurement": "effect on 5-HT3 receptor currents", "setting": "human 5-HT3 receptor; 100 µM for 15 min, n = 8, P>0.05", "result": "did not affect"}]}
{"smiles": "CN1[C@@H]2CC[C@H]1C[C@@H](OC(=O)c1cc(Cl)cc(Cl)c1)C2", "note": "[MDL72222, Tropanyl 3,5-dichlorobenzoate]", "values": [{"measurement": "inhibition of fast inward currents activated by 5-HT (1 μM) or 2-methyl-5-HT (10 μM)", "setting": "human 5-HT3 receptor; 0.5 µM, n = 7", "result": "completely inhibited"}]}
{"smiles": "Oc1cc2c(cc1O)CN(C(=S)NCCc1ccc(Cl)cc1)CCC2", "note": "[capsazepine]", "values": [{"measurement": "change in amplitudes of 5-HT3 receptor-mediated currents, compound alone", "setting": "human 5-HT3 receptor; 10 µM, 5-HT 1 µM, n = 4", "result": "did not cause any significant change"}]}
